Source: patent publication US20120184590A1, “FORMULATIONS OF INDOLE-3-CARBINOL DERIVED ANTITUMOR AGENTS WITH INCREASED ORAL BIOAVAILABILITY” (UNIVERSITY OF KANSAS, priority 2009, published 2012)
Entries after “also recorded” stand apart in the source; their conditions may differ. Like-named read-outs stand apart in the source and are kept apart here.

Test: Pharmacokinetics of SR13668 in monkeys after i.v. and oral gavage dosing
Format: in vivo, cynomolgus monkeys (macaca fasicularis)
Conditions: for CL: blood clearance; for Fabs F/(1-ER): blood; for CL/F: read-out: CL/F (converted); for Vd/F: read-out: VZ/F
Text: Four non-naïve male beagle dogs (approximately 3 years of age; Ridglan Farms Inc. Mt. Horeb, Wis.) and four non-naïve male cynomolgus monkeys [cynos (macaca fasicularis); approximately 7 to 8 years of age; Charles River Laboratories, Inc., Houston, Tex.] were used in this study. Prior to experimental initiation for the present study, the attending veterinarian certified that the animals were healthy and free from disease and parasites.
For both species, each animal was part of each experimental group, with a 7-day interval between treatments to allow for washout of the dosing formulation and its effects. Dosing formulations of SR13668 were administered by oral gavage (intragastric) or intravenous (i.v.) injection as a single dose or once daily for seven consecutive days. Oral to doses were administered at a dosing volume of 5 mL/kg of body weight, while intravenous doses were administered at a dosing volume of 0.5 mL/kg of body weight. Dogs were dosed with 93.6 mg/m^2 SR13668 intravenously in DMSO:PEG300 15:85 (v/v) or orally in Solutol® vehicle (two groups, fed and after an overnight fast). Monkeys were dosed with 84.2 mg/m^2 SR13668 intravenously in DMSO:PEG300 15:85 (v/v) or orally (336.7 mg/m^2 SR13668 for the oral high dose group) in PEG400:Labrasol® 1:1 (v/v) or Solutol® vehicles. Vehicle control groups were used to assess the tolerability of the vehicle and for clinical pathology evaluations.
Blood samples were collected from each animal at 10 time points (0, 0.25, 0.5, 1, 2, 4, 6, 8, 12 and 24 hours post-dose) during the first and last 24-hour segment of each dosing regimen. For single intravenous dose experiments, samples were collected during the 24-hour post-dose period only. Samples were transferred to Vacutainer tubes containing ethylenediaminetetraacetic acid (EDTA; Fisher Scientific, Pittsburgh, Pa.). The tubes were inverted several times to mix and then placed on ice until storage or centrifugation for plasma preparation. After centrifugation, the plasma was transferred into storage tubes (0.5 mL), which were placed on dry ice and then stored frozen (approximately −70° C.).
Levels of SR13668 in plasma and blood were measured using a tandem mass to spectrometer (API 3000; Applied Biosystems/MDS Sciex, Foster City, Calif.) equipped with a high performance liquid chromatograph (Agilent 1200; Agilent Technologies, Wilmington, Del.). For SR13668 determination, a 100 μL blood or plasma aliquot was mixed with 1 mL of acetonitrile (ACN; Sigma-Aldrich, St. Louis, Mo.). After vortex-mixing for one minute, the sample was centrifuged at 4° C. and 7000 RPM for 10 minutes to remove precipitated proteins, and the supernatant was transferred to a clean tube and dried under nitrogen flow at room temperature (approximately 25° C.). After the evaporation was completed, the residue was reconstituted in 500 μL of ACN/water (v/v 70:30), and vortex-mixed and centrifuged again. An aliquot of the resulting supernatant was transferred to an autosampler tube for instrumental analysis.
A freshly prepared SR13668 standard curve was analyzed along with samples on each day of analysis. The chromatographic column was a Luna 3μ C18(2) 110 Å 30×2.0 mm (Phenomenex, Torrance, Calif.). The column temperature was maintained at 25° C., and a flow rate of 0.30 mL/min was used. The mobile phase consisted of MPA: formic acid in water (0.05%, v/v) and MPB: formic acid in ACN (0.05%, v/v). The mobile phase gradient was as follows: after injection, initial conditions with MPA at 40% were held for 0.01 min, decreased to 5% and held constant for 3 min, returning to initial conditions for another 3 min of re-equilibration time. Retention time of SR13668 was approximately 2.4 min. Total run time was 6 min. A turbo ion spray interface was used as the ion source operating in negative ion mode. Acquisition was performed in multiple reaction monitoring mode using ions 429.15 (Q1) and 414.12 (Q3) Dalton. […]

[1] = 84.2 mg/m^2 (7.02 mg/kg) oral gavage, PEG400:Labrasol 1:1 v/v, fed
[2] = 84.2 mg/m^2 (7.02 mg/kg) oral gavage, Solutol, fed
[3] = 336.7 mg/m^2 (28.06 mg/kg) oral gavage, PEG400:Labrasol 1:1 v/v, fed
[4] = male, cynomolgus monkey, plasma, iv, 7.02 mg/kg, plasma, 84.2 mg/m^2 (7.02 mg/kg) i.v. single dose, DMSO:PEG300 15:85 v/v, fed
[5] = male, cynomolgus monkey, plasma, po, 7.02 mg/kg, 84.2 mg/m^2 (7.02 mg/kg) oral gavage, Solutol, seventh daily dose, fed
[6] = male, cynomolgus monkey, plasma, po, 7.02 mg/kg, plasma, 84.2 mg/m^2 (7.02 mg/kg) oral gavage, PEG400:Labrasol 1:1 v/v, seventh daily dose, fed
[7] = male, cynomolgus monkey, plasma, po, 7.02 mg/kg, plasma, 84.2 mg/m^2 (7.02 mg/kg) oral gavage, Solutol, seventh daily dose, fed
[8] = male, cynomolgus monkey, plasma, po, 28.06 mg/kg, plasma, 336.7 mg/m^2 (28.06 mg/kg) oral gavage, PEG400:Labrasol 1:1 v/v, seventh daily dose, fed
[9] = male, cynomolgus monkey, whole blood, iv, 7.02 mg/kg, whole blood, 84.2 mg/m^2 (7.02 mg/kg) iv single dose, DMSO:PEG300 15:85 v/v, fed
[10] = male, cynomolgus monkey, whole blood, po, 7.02 mg/kg, 84.2 mg/m^2 (7.02 mg/kg) oral gavage, Solutol, seventh daily dose, fed

Compound: CCOC(=O)c1ccc2[nH]c3c(OC)c4[nH]c5ccc(C(=O)OCC)cc5c4cc3c2c1 [SR13668, 2,10-dicarbethoxy-6-methoxy-5,7-dihydro-indolo-(2,3-b)carbazole]
- effect of fourfold dose increase on oral bioavailability (PEG400:Labrasol, 84.2 vs 336.7 mg/m^2): about a fourfold decrease in the bioavailability; also recorded: lower oral bioavailability
- CL [1]: 121 mL/min/kg
- CL [2]: 47.7 mL/min/kg
- CL [3]: 332 mL/min/kg
- Fabs F/(1-ER) [1]: 4.1%
- Fabs F/(1-ER) [2]: 9.1%
- Fabs F/(1-ER) [3]: 1.2%
- ER CLiv/Q (iv blood clearance over hepatic blood flow 43.6 mL/min/kg): 0.083
- AUC(0-inf) [4]: 13300 ± 4920 ng·h/mL
- Cmax [4]: 6090 ± 1080 ng/mL
- MRT [4]: 6.9 ± 1.1 h
- AUC(0-inf) [5]: 837 ± 144 ng·h/mL
- Cmax [5]: 71.4 ± 16 ng/mL
- MRT [5]: 12.8 ± 2.1 h
- Tmax [5]: 8 ± 3.3 h
- AUC(0-inf) [6]: 437 ± 312 ng·h/mL
- Cmax [6]: 40.5 ± 38 ng/mL
- MRT [6]: 11.6 ± 1.3 h
- CL/F [6]: 372 mL/min/kg
- Vd/F [6]: 203 ± 130 L/kg
- CL/F [7]: 143 mL/min/kg
- Vd/F [7]: 90.5 ± 9.9 L/kg
- AUC(0-inf) [8]: 367 ± 154 ng·h/mL
- Cmax [8]: 43.7 ± 9.2 ng/mL
- MRT [8]: 9.1 ± 2.4 h
- Tmax [8]: 3.5 ± 1.9 h
- CL/F [8]: 1440 mL/min/kg
- Vd/F [8]: 603 ± 236 L/kg
- AUC(0-inf) [9]: 35400 ± 12400 ng·h/mL
- Cmax [9]: 11100 ± 776 ng/mL
- MRT [9]: 9 ± 2.2 h
- Tmax [9]: 0.25 h
- half-life [9]: 8.6 ± 1.7 h
- AUC(0-inf) [10]: 2490 ± 377 ng·h/mL
- Cmax [10]: 227 ± 56 ng/mL
- MRT [10]: 13.3 ± 1.1 h
